Drawing on US8586747B2, “3,3-dimethyl tetrahydroquinoline derivatives” (Hoffmann-La Roche Inc., priority 2010, dated 2013), this text covers E30 for 32 compounds.

The assay concerns AMP-activated protein kinase (AMPK). Nature of the assay: ADP Quest assay for AMPK activators. It is filed as biochemical. Also on record: key: fold AMPK activation with vs without activator at 30 µM. The conditions noted are these: fold of AMPK activation to phosphorylate SAMS peptide without and with an activator at the concentration of 30 µM. In outline: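 E30, the fold increase in SAMS peptide phosphorylation at 30 µM compound relative to no activator, is derived from kinetic fluorescent detection of ADP (ex 530, em 590 nm). AMPK starts the ATP-containing reaction at room temperature; compounds span […] by 2-fold steps, AMP serves as reference.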

Compound `CC1(C)Cc2cc(C(=O)O)ccc2NC1c1cccc(N2CCN(c3ccc(Cl)cc3)CC2)c1` (centres unmarked) [Example 87, 2-{3-[4-(4-Chloro-phenyl)-piperazin-1-yl]-phenyl}-3,3-dimethyl-1,2,3,4-tetrahydro-quinoline-6-carboxylic acid] came in with an E30 of 1.3.
Then `CC1(C)Cc2cc(C(=O)NS(C)(=O)=O)ccc2NC1c1cccc(N2CCN(c3ccc(Cl)cc3)CC2)c1` (centres unmarked) [Example 88, N-(2-{3-[4-(4-Chloro-phenyl)-piperazin-1-yl]-phenyl}-3,3-dimethyl-1,2,3,4-tetrahydro-quinoline-6-carbonyl)-methanesulfonamide], with 1.35; and `Cc1ccc(N2CCN(c3cccc(C4Nc5ccc(C(=O)O)cc5CC4(C)C)c3)CC2)c(C)c1` (centres unmarked) [Example 89, 2-{3-[4-(2,4-Dimethyl-phenyl)-piperazin-1-yl]-phenyl}-3,3-dimethyl-1,2,3,4-tetrahydro-quinoline-6-carboxylic acid], with 1.3.
Then `Cc1ccc(N2CCN(c3cccc(C4Nc5ccc(C(=O)NS(C)(=O)=O)cc5CC4(C)C)c3)CC2)c(C)c1` (centres unmarked) [Example 90, N-(2-{3-[4-(2,4-Dimethyl-phenyl)-piperazin-1-yl]-phenyl}-3,3-dimethyl-1,2,3,4-tetrahydro-quinoline-6-carbonyl)-methanesulfonamide], with 1.44.
Turning to `Cc1ccc(N2CCN(c3cccc(C4Nc5ccc(C(=O)NS(=O)(=O)C6CC6)cc5CC4(C)C)c3)CC2)c(C)c1` (centres unmarked) [Example 91, Cyclopropanesulfonic acid (2-{3-[4-(2,4-dimethyl-phenyl)-piperazin-1-yl]-phenyl}-3,3-dimethyl-1,2,3,4-tetrahydro-quinoline-6-carbonyl)-amide], the E30 is reported as 1.31.
`Cc1ccccc1N1CCN(c2cccc(C3Nc4c(cc(F)cc4C(=O)O)CC3(C)C)c2)CC1` (centres unmarked) [Example 92, 6-Fluoro-3,3-dimethyl-2-[3-(4-o-tolyl-piperazin-1-yl)-phenyl]-1,2,3,4-tetrahydro-quinoline-8-carboxylic acid] registered an E30 of 1.23.
As for `CC1(C)Cc2cc(Cl)cc(C(=O)NS(C)(=O)=O)c2NC1c1cccc(N2CCN(c3ccc(Cl)cc3)CC2)c1` (centres unmarked) [Example 93, N-(6-Chloro-2-{3-[4-(4-chloro-phenyl)-piperazin-1-yl]-phenyl}-3,3-dimethyl-1,2,3,4-tetrahydro-quinoline-8-carbonyl)-methanesulfonamide], the figure is 1.32; as for `Cc1ccccc1N1CCN(c2cccc(C3Nc4c(cccc4C(=O)O)CC3(C)C)c2)CC1` (centres unmarked) [Example 94, 3,3-Dimethyl-2-[3-(4-o-tolyl-piperazin-1-yl)-phenyl]-1,2,3,4-tetrahydro-quinoline-8-carboxylic acid], 1.33.
Take `CC1(C)Cc2c(ccc(Cl)c2C(=O)O)NC1c1cccc(N2CCOCC2)c1` (centres unmarked) [Example 95, 6-Chloro-3,3-dimethyl-2-(3-morpholin-4-yl-phenyl)-1,2,3,4-tetrahydro-quinoline-5-carboxylic acid]: the E30 is reported as 1.56.
Then `CN1CCN(c2cccc(C3Nc4ccc(C(=O)NS(C)(=O)=O)cc4CC3(C)C)c2)CC1` (centres unmarked) [Example 96, N-{3,3-Dimethyl-2-[3-(4-methyl-piperazin-1-yl)-phenyl]-1,2,3,4-tetrahydro-quinoline-6-carbonyl}-methanesulfonamide], with 1.5; and `CC1(C)Cc2cc(C(=O)NS(=O)(=O)C3CC3)ccc2NC1c1cccc(N2CCNCC2)c1` (centres unmarked) [Example 97, Cyclopropanesulfonic acid [3,3-dimethyl-2-(3-piperazin-1-yl-phenyl)-1,2,3,4-tetrahydro-quinoline-6-carbonyl]-amide], with 1.46; and `CCS(=O)(=O)NC(=O)c1ccc2c(c1)CC(C)(C)C(c1cccc(N3CCOCC3)c1)N2` (centres unmarked) [Example 98, Ethanesulfonic acid [3,3-dimethyl-2-(3-morpholin-4-yl-phenyl)-1,2,3,4-tetrahydro-quinoline-6-carbonyl]-amide], with 1.44.
Then `CN1CCN(c2cccc(C3Nc4ccc(C(=O)O)cc4CC3(C)C)c2)CC1` (centres unmarked) [Example 99, 3,3-Dimethyl-2-[3-(4-methyl-piperazin-1-yl)-phenyl]-1,2,3,4-tetrahydro-quinoline-6-carboxylic acid], with 1.42.
`CC1(C)Cc2cc(Cl)cc(C(=O)O)c2NC1c1cccc(N2CCOCC2)c1` (centres unmarked) [Example 100, 6-Chloro-3,3-dimethyl-2-(3-morpholin-4-yl-phenyl)-1,2,3,4-tetrahydro-quinoline-8-carboxylic acid] registered an E30 of 1.4.
As for `CC1(C)Cc2cc(Cl)cc(C(=O)NS(=O)(=O)C3CC3)c2NC1c1cccc(N2CCOCC2)c1` (centres unmarked) [Example 101, Cyclopropanesulfonic acid [6-chloro-3,3-dimethyl-2-(3-morpholin-4-yl-phenyl)-1,2,3,4-tetrahydro-quinoline-8-carbonyl]-amide], the figure is 1.4; as for `CC1(C)Cc2cc(C(=O)O)ccc2NC1c1cccc(N2CCNCC2)c1` (centres unmarked) [Example 102, 3,3-Dimethyl-2-(3-piperazin-1-yl-phenyl)-1,2,3,4-tetrahydro-quinoline-6-carboxylic acid], 1.4; as for `CC1(C)Cc2cc(C(=O)NS(C)(=O)=O)ccc2NC1c1cccc(N2CCNCC2)c1` (centres unmarked) [Example 103, N-[3,3-Dimethyl-2-(3-piperazin-1-yl-phenyl)-1,2,3,4-tetrahydro-quinoline-6-carbonyl]-methanesulfonamide], 1.37.
As for `CC1CN(c2cccc(C3Nc4ccc(C(=O)NS(=O)(=O)C5CC5)cc4CC3(C)C)c2)CC(C)O1` (centres unmarked) [Example 105, Cyclopropanesulfonic acid {2-[3-(2,6-dimethyl-morpholin-4-yl)-phenyl]-3,3-dimethyl-1,2,3,4-tetrahydro-quinoline-6-carbonyl}-amide], the figure is 1.35; as for `CC1CN(c2cccc(C3Nc4ccc(C(=O)O)cc4CC3(C)C)c2)CC(C)O1` (centres unmarked) [Example 106, 2-[3-(2,6-Dimethyl-morpholin-4-yl)-phenyl]-3,3-dimethyl-1,2,3,4-tetrahydro-quinoline-6-carboxylic acid], 1.3.
As for `COc1cccc(C2Nc3ccc(C(=O)N4CCC(C)(O)C4)cc3CC2(C)C)c1` (centres unmarked) [Example 107, (3-Hydroxy-3-methyl-pyrrolidin-1-yl)-[2-(3-methoxy-phenyl)-3,3-dimethyl-1,2,3,4-tetrahydro-quinolin-6-yl]-methanone], the figure is 1.29.
`CC1(C)Cc2cc(C(=O)O)ccc2NC1c1cccnc1` (centres unmarked) [Example 108, 3,3-Dimethyl-2-pyridin-3-yl-1,2,3,4-tetrahydro-quinoline-6-carboxylic Acid]: the E30 came out at 1.29.
As for `CC1(C)Cc2cc(C(=O)O)ccc2NC1c1cccc(-c2ccc(Cl)cc2)c1` (centres unmarked) [Example 109, 2-(4′-Chloro-biphenyl-3-yl)-3,3-dimethyl-1,2,3,4-tetrahydro-quinoline-6-carboxylic acid], the figure is 1.24.
As for `CC1(C)Cc2cc(C(=O)NS(C)(=O)=O)ccc2NC1c1cccc(N2CCOC2=O)c1` (centres unmarked) [Example 110, N-{3,3-Dimethyl-2-[3-(2-oxo-oxazolidin-3-yl)-phenyl]-1,2,3,4-tetrahydro-quinoline-6-carbonyl}-methanesulfonamide], the figure is 1.24; as for `CC1(C)Cc2c(C(=O)O)ccc(Cl)c2NC1c1cccc(N2CCOCC2)c1` (centres unmarked) [Example 111, 8-Chloro-3,3-dimethyl-2-(3-morpholin-4-yl-phenyl)-1,2,3,4-tetrahydro-quinoline-5-carboxylic acid], 1.24; as for `CC1(C)Cc2cc(C(=O)O)cc(Cl)c2NC1c1cccc(N2CCOCC2)c1` (centres unmarked) [Example 112, 8-Chloro-3,3-dimethyl-2-(3-morpholin-4-yl-phenyl)-1,2,3,4-tetrahydro-quinoline-6-carboxylic acid], 1.22.
Consider `CC1(C)Cc2cc(C(=O)O)ccc2NC1c1ccc(F)c(Cl)c1` (centres unmarked) [Example 113, 2-(3-Chloro-4-fluoro-phenyl)-3,3-dimethyl-1,2,3,4-tetrahydro-quinoline-6-carboxylic acid], for which the E30 was found to be 1.21.
Compound `CC1(C)Cc2cc(C(=O)NS(=O)(=O)C3CC3)ccc2NC1c1cncc(N2CCOCC2)c1` (centres unmarked) [Example 114, Cyclopropanesulfonic acid [3,3-dimethyl-2-(5-morpholin-4-yl-pyridin-3-yl)-1,2,3,4-tetrahydro-quinoline-6-carbonyl]-amide] gave an E30 of 1.21.
As for `CC1(C)Cc2cc(C(=O)NS(C)(=O)=O)cc(Cl)c2NC1c1cccc(N2CCOCC2)c1` (centres unmarked) [Example 115, N-[8-Chloro-3,3-dimethyl-2-(3-morpholin-4-yl-phenyl)-1,2,3,4-tetrahydro-quinoline-6-carbonyl]-methanesulfonamide], the figure is 1.2; as for `CC1(C)Cc2cc(C(=O)NS(=O)(=O)C3CC3)ccc2NC1c1cccc(N2CCOC2=O)c1` (centres unmarked) [Example 116, Cyclopropanesulfonic acid {3,3-dimethyl-2-[3-(2-oxo-oxazolidin-3-yl)-phenyl]-1,2,3,4-tetrahydro-quinoline-6-carbonyl}-amide], 1.2; as for `CC1(C)Cc2c(ccc(F)c2C(=O)NS(=O)(=O)C2CC2)NC1c1cccc(N2CCOCC2)c1` (centres unmarked) [Example 117, Cyclopropanesulfonic acid [6-fluoro-3,3-dimethyl-2-(3-morpholin-4-yl-phenyl)-1,2,3,4-tetrahydro-quinoline-5-carbonyl]-amide], 1.7.
Take `CC1(C)Cc2c(ccc(F)c2C(=O)NS(C)(=O)=O)NC1c1cccc(N2CCOCC2)c1` (centres unmarked) [Example 118, N-[6-Fluoro-3,3-dimethyl-2-(3-morpholin-4-yl-phenyl)-1,2,3,4-tetrahydro-quinoline-5-carbonyl]-methanesulfonamide]: the E30 is given as 1.64.
As for `CNCCN(C)c1cccc(C2Nc3ccc(C(=O)O)cc3CC2(C)C)c1` (centres unmarked) [Example 120, 3,3-Dimethyl-2-{3-[methyl-(2-methylamino-ethyl)-amino]-phenyl}-1,2,3,4-tetrahydro-quinoline-6-carboxylic acid], the figure is 1.5.
